Measurements reported in US20220119354A1, “DIAMINO-SUBSTITUTED PYRIDINES AND PYRIMIDINES AS HERBICIDES” (FMC Corporation, priority 2019, published 2022).

Assays:
Assay type in all cases: in vivo
[1] = system: barnyardgrass (Echinochloa crus-galli); assay: Test A preemergence, barnyardgrass; settings: 0 to 100 scale; for Barnyardgrass plant response rating: 0 is no effect, 100 is complete control
Description: (§1) Seeds of plant species selected from barnyardgrass (Echinochloa crus-galli), kochia (Kochia scoparia), ragweed (common ragweed, Ambrosia elatior), ryegrass, Italian (Lolium multiflorum), foxtail, giant (Setaria faberii), foxtail, green (Setaria viridis), and pigweed (Amaranthus retroflexus) were planted into a blend of loam soil and sand and treated preemergence with a directed soil spray using test chemicals formulated in a non-phytotoxic solvent mixture which included a surfactant.
(§2) At the same time, plants selected from these weed species and also wheat (Triticum aestivum), corn (Zea mays), blackgrass (Alopecurus myosuroides), and galium (catchweed bedstraw, Galium aparine) were planted in pots containing the same blend of loam soil and sand and treated with postemergence applications of test chemicals formulated in the same manner. Plants ranged in height from 2 to 10 cm and were in the one- to two-leaf stage for the postemergence treatment. Treated plants and untreated controls were maintained in a greenhouse for approximately 10 d, after which time all treated plants were compared to untreated controls and visually evaluated for injury. Plant response ratings, summarized in Table A, are based on a 0 to 100 scale where 0 is no effect and 100 is complete control. A dash (-) response means no test result.

kochia (Kochia scoparia) [2] = assay: Test A preemergence, kochia; settings: 0 to 100 scale; for Kochia plant response rating: 0 is no effect, 100 is complete control
Description: as §1, §2

[3] = system: ragweed (common ragweed, Ambrosia elatior); assay: Test A preemergence, ragweed; settings: 0 to 100 scale, 0 is no effect, 100 is complete control
Description: as §1, §2

[4] = system: ryegrass, Italian (Lolium multiflorum); assay: Test A preemergence, Italian ryegrass; settings: 0 to 100 scale; for Ryegrass, Italian plant response rating: 0 is no effect, 100 is complete control
Description: as §1, §2

[5] = system: foxtail, giant (Setaria faberii); assay: Test A preemergence, giant foxtail; settings: 0 to 100 scale; for Foxtail, Giant plant response rating: 0 is no effect, 100 is complete control
Description: as §1, §2

[6] = system: pigweed (Amaranthus retroflexus); assay: Test A preemergence, pigweed; settings: 0 to 100 scale; for Pigweed plant response rating: 0 is no effect, 100 is complete control
Description: as §1, §2

kochia (Kochia scoparia) [7] = assay: Test A postemergence, kochia; settings: 0 to 100 scale
Description: as §1, §2

[8] = system: ragweed (common ragweed, Ambrosia elatior); assay: Test A postemergence, ragweed; settings: 0 to 100 scale
Description: as §1, §2

[9] = system: ryegrass, Italian (Lolium multiflorum); assay: Test A postemergence, Italian ryegrass; settings: 0 to 100 scale
Description: as §1, §2

[10] = system: foxtail, giant (Setaria faberii); assay: Test A postemergence, giant foxtail; settings: 0 to 100 scale
Description: as §1, §2

[11] = system: pigweed (Amaranthus retroflexus); assay: Test A postemergence, pigweed; settings: 0 to 100 scale
Description: as §1, §2

[12] = system: wheat (Triticum aestivum); assay: Test A postemergence, wheat; settings: 0 to 100 scale
Description: as §1, §2

corn (Zea mays) = assay: Test A postemergence, corn; settings: 0 to 100 scale
Description: as §1, §2

[13] = system: blackgrass (Alopecurus myosuroides); assay: Test A postemergence, blackgrass; settings: 0 to 100 scale
Description: as §1, §2

[14] = system: galium (catchweed bedstraw, Galium aparine); assay: Test A postemergence, galium; settings: 0 to 100 scale
Description: as §1, §2

rice (Oryza sativa) = assay: Test B flooded paddy test, rice; settings: Flood, 250 g ai/ha, applied to paddy water, 2-leaf stage, visual evaluation after 13 to 15 d
Protocol: (§3) Plant species in the flooded paddy test selected from rice (Oryza sativa), sedge, umbrella (small-flower umbrella sedge, Cyperus difformis), ducksalad (Heteranthera limosa), and barnyardgrass (Echinochloa crus-galli) were grown to the 2-leaf stage for testing. At the time of treatment, test pots were flooded to 3 cm above the soil surface, treated by application of test compounds directly to the paddy water, and then maintained at that water depth for the duration of the test. Treated plants and controls were maintained in a greenhouse for 13 to 15 d, after which time all species were compared to controls and visually evaluated. Plant response ratings, summarized in Table B, are based on a scale of 0 to 100 where 0 is no effect and 100 is complete control. A dash (-) response means no test result.

[15] = system: sedge, umbrella (small-flower umbrella sedge, Cyperus difformis); assay: Test B flooded paddy test, umbrella sedge; settings: Flood, 250 g ai/ha, applied to paddy water, 2-leaf stage, visual evaluation after 13 to 15 d
Protocol: as §3

[16] = system: ducksalad (Heteranthera limosa); assay: Test B flooded paddy test, ducksalad; settings: Flood, 250 g ai/ha, applied to paddy water, 2-leaf stage, visual evaluation after 13 to 15 d
Protocol: as §3

[17] = system: barnyardgrass (Echinochloa crus-galli); assay: Test B flooded paddy test, barnyardgrass; settings: Flood, 250 g ai/ha, applied to paddy water, 2-leaf stage, visual evaluation after 13 to 15 d
Protocol: as §3

[18] = system: barnyardgrass (Echinochloa crus-galli); assay: Test A postemergence, barnyardgrass; settings: 0 to 100 scale
Description: as §1, §2

[19] = 125 g ai/ha, 0 no effect, 100 complete control
[20] = 500 g ai/ha, 0 no effect, 100 complete control

Cc1ccc2c([C@H](Nc3ncc(C(F)(F)F)c(N)n3)C3CC3)coc2c1 [Compound 90]
60: Plant response rating, Pigweed [11, 19] | Plant response rating, Blackgrass [13, 20]
50: Ragweed plant response rating ([3]; 125 g ai/ha) | Ryegrass, Italian plant response rating ([4]; 500 g ai/ha) | Plant response rating, Foxtail, Giant [10, 20]
25: Plant response rating, Ducksalad (0 to 100 scale, 0 is no effect, 100 is complete control) [16]
80: Barnyardgrass plant response rating ([1]; 500 g ai/ha)
0: Barnyardgrass plant response rating ([1]; 125 g ai/ha) | Kochia plant response rating (kochia (Kochia scoparia) [2]; 125 g ai/ha) | Plant response rating, Foxtail, Giant [10, 19] | Plant response rating, Wheat [12, 19] | Plant response rating, Corn (corn (Zea mays); [19]) | Plant response rating, Corn (corn (Zea mays); [20]) | Plant response rating, Blackgrass [13, 19] | Plant response rating, Rice (0 to 100 scale, 0 is no effect, 100 is complete control) (rice (Oryza sativa))
90: Kochia plant response rating (kochia (Kochia scoparia) [2]; 500 g ai/ha) | Plant response rating, Kochia (kochia (Kochia scoparia) [7]; [20])
70: Foxtail, Giant plant response rating ([5]; 125 g ai/ha) | Pigweed plant response rating ([6]; 125 g ai/ha) | Plant response rating, Ragweed [8, 20] | Plant response rating, Galium [14, 20]
100: Ragweed plant response rating ([3]; 500 g ai/ha) | Foxtail, Giant plant response rating ([5]; 500 g ai/ha) | Pigweed plant response rating ([6]; 500 g ai/ha) | Plant response rating, Pigweed [11, 20]
20: Plant response rating, Kochia (kochia (Kochia scoparia) [7]; [19]) | Plant response rating, Sedge, Umbrella (0 to 100 scale, 0 is no effect, 100 is complete control) [15]
30: Ryegrass, Italian plant response rating ([4]; 125 g ai/ha) | Plant response rating, Ragweed [8, 19] | Plant response rating, Ryegrass, Italian [9, 19] | Plant response rating, Wheat [12, 20]
40: Plant response rating, Ryegrass, Italian [9, 20] | Plant response rating, Galium [14, 19] | Plant response rating, Barnyardgrass (0 to 100 scale, 0 is no effect, 100 is complete control) [17]

C[C@@H](Nc1ncc(C(F)(F)F)c(N)n1)c1cc2cc(F)c(F)cc2o1 [Compounds 30]
100: Plant response rating, Pigweed ([6]; 500 g ai/ha) | Plant response rating, Pigweed ([11]; 125 g ai/ha) | Plant response rating, Pigweed ([11]; 500 g ai/ha)
80: Plant response rating, Barnyardgrass ([1]; 500 g ai/ha) | Plant response rating, Kochia (kochia (Kochia scoparia) [7]; 500 g ai/ha) | Plant response rating, Ragweed ([8]; 500 g ai/ha) | Plant response rating, Sedge, Umbrella (0 to 100 scale, 0 is no effect, 100 is complete control) [15]
30: Plant response rating, Kochia (kochia (Kochia scoparia) [2]; 500 g ai/ha) | Plant response rating, Barnyardgrass ([18]; 500 g ai/ha) | Plant response rating, Foxtail, Giant ([10]; 500 g ai/ha)
10: Plant response rating, Corn (corn (Zea mays); 125 g ai/ha)
0: Plant response rating, Barnyardgrass ([1]; 125 g ai/ha) | Plant response rating, Kochia (kochia (Kochia scoparia) [2]; 125 g ai/ha) | Plant response rating, Ryegrass, Italian ([4]; 125 g ai/ha) | Plant response rating, Ryegrass, Italian ([4]; 500 g ai/ha) | Plant response rating, Foxtail, Giant ([5]; 125 g ai/ha) | Plant response rating, Barnyardgrass ([18]; 125 g ai/ha) | Plant response rating, Ryegrass, Italian ([9]; 125 g ai/ha) | Plant response rating, Ryegrass, Italian ([9]; 500 g ai/ha) | Plant response rating, Foxtail, Giant ([10]; 125 g ai/ha) | Plant response rating, Wheat ([12]; 125 g ai/ha) | Plant response rating, Wheat ([12]; 500 g ai/ha) | Plant response rating, Corn (corn (Zea mays); 500 g ai/ha) | Plant response rating, Blackgrass ([13]; 125 g ai/ha) | Plant response rating, Blackgrass ([13]; 500 g ai/ha) | Plant response rating, Rice (0 to 100 scale, 0 is no effect, 100 is complete control) (rice (Oryza sativa)) | Plant response rating, Ducksalad (0 to 100 scale, 0 is no effect, 100 is complete control) [16] | Plant response rating, Barnyardgrass (0 to 100 scale, 0 is no effect, 100 is complete control) [17]
50: Plant response rating, Galium ([14]; 125 g ai/ha)
70: Plant response rating, Foxtail, Giant ([5]; 500 g ai/ha)
60: Plant response rating, Galium ([14]; 500 g ai/ha)
20: Plant response rating, Kochia (kochia (Kochia scoparia) [7]; 125 g ai/ha) | Plant response rating, Ragweed ([8]; 125 g ai/ha)
40: Plant response rating, Pigweed ([6]; 125 g ai/ha)

Cc1cc2oc([C@@H](C)Nc3ncc(C(F)(F)F)c(N)n3)cc2cc1F [Compound 31]
20: Plant response rating, Ryegrass, Italian ([4]; 125 g ai/ha) | Plant response rating, Barnyardgrass ([18]; 125 g ai/ha) | Plant response rating, Blackgrass ([13]; 125 g ai/ha)
10: Plant response rating, Ryegrass, Italian ([9]; 500 g ai/ha) | Plant response rating, Foxtail, Giant ([10]; 125 g ai/ha) | Plant response rating, Blackgrass ([13]; 500 g ai/ha)
30: Plant response rating, Ryegrass, Italian ([9]; 125 g ai/ha) | Plant response rating, Corn (corn (Zea mays); 500 g ai/ha)
80: Plant response rating, Ryegrass, Italian ([4]; 500 g ai/ha) | Plant response rating, Barnyardgrass ([18]; 500 g ai/ha)
60: Plant response rating, Kochia (kochia (Kochia scoparia) [7]; 125 g ai/ha) | Plant response rating, Ragweed ([8]; 125 g ai/ha)
0: Plant response rating, Wheat ([12]; 125 g ai/ha) | Plant response rating, Wheat ([12]; 500 g ai/ha) | Plant response rating, Corn (corn (Zea mays); 125 g ai/ha) | Plant response rating, Rice (0 to 100 scale, 0 is no effect, 100 is complete control) (rice (Oryza sativa)) | Plant response rating, Sedge, Umbrella (0 to 100 scale, 0 is no effect, 100 is complete control) [15] | Plant response rating, Ducksalad (0 to 100 scale, 0 is no effect, 100 is complete control) [16] | Plant response rating, Barnyardgrass (0 to 100 scale, 0 is no effect, 100 is complete control) [17]
70: Plant response rating, Barnyardgrass ([1]; 125 g ai/ha) | Plant response rating, Foxtail, Giant ([10]; 500 g ai/ha) | Plant response rating, Galium ([14]; 125 g ai/ha)
100: Plant response rating, Barnyardgrass ([1]; 500 g ai/ha) | Plant response rating, Foxtail, Giant ([5]; 500 g ai/ha) | Plant response rating, Pigweed ([6]; 500 g ai/ha) | Plant response rating, Pigweed ([11]; 500 g ai/ha) | Plant response rating, Galium ([14]; 500 g ai/ha)
90: Plant response rating, Kochia (kochia (Kochia scoparia) [2]; 500 g ai/ha) | Plant response rating, Foxtail, Giant ([5]; 125 g ai/ha) | Plant response rating, Pigweed ([6]; 125 g ai/ha) | Plant response rating, Kochia (kochia (Kochia scoparia) [7]; 500 g ai/ha) | Plant response rating, Ragweed ([8]; 500 g ai/ha) | Plant response rating, Pigweed ([11]; 125 g ai/ha)
40: Plant response rating, Kochia (kochia (Kochia scoparia) [2]; 125 g ai/ha)
